Measurements reported in PMC2639596, “Antimicrobial peptides effectively kill a broad spectrum of Listeria monocytogenes and Staphylococcus aureus strains independently of origin, sub-type, or virulence factor expression” (BMC Microbiology, 2008).

Tests used:
[1] = system: L. monocytogenes and S. aureus; assay: Minimum bactericidal concentration (MBC), plating from MIC wells; assay type: cell-based, Listeria monocytogenes, Staphylococcus aureus; conditions: 99.9% reduction of initial inoculum; 10 μl from wells with no visible growth plated on BHI agar
Description: (§1) The strain collection was tested for sensitivity to protamine, plectasin, novicidin, and novispirin G10 by determining their minimal inhibitory concentration (MIC) using a microbroth dilution method. Colonies from a BHI agar plate incubated overnight were suspended in MHB pH 7.4 to a turbidity of 0.11–0.12 at 546 nm (approx. 1.0 × 10^8 CFU/ml) and diluted in MHB to a concentration of 5.0 × 10^5 CFU/ml. 90 μl of bacterial suspension was incubated with 10 μl of peptide solution in polypropylene 96-well plates (Nunc, 442587) for 18–24 h at 37°C. The peptide solutions were made fresh on the day of assay and diluted two-fold. The range of concentrations assayed were 0.031–32 μg/ml for novicidin, 0.125–128 μg/ml for protamine and novispirin G10, and 0.25–256 μg/ml for plectasin. MIC was the lowest peptide concentration at which visual growth was inhibited. The minimum bactericidal concentration (MBC) values were determined by plating l0 μl samples from wells with no visible growth onto BHI agar plates. MBC was the lowest concentration of each peptide of which 99.9% reduction of the initial inoculum was observed.

Staphylococcus aureus = assay: MIC of host defense peptides in liquid medium (microbroth dilution); assay type: cell-based; conditions: 37°C; for MIC: 18–24 h
Description: (§2) Experiments were carried out with a collection of 25 Listeria monocytogenes strains (Table 1) and 16 Staphylococcus aureus strains (Table 2) representing different lineages and serotypes (L. monocytogenes), spa types (S. aureus), and origins (food processing environment, food products, and human clinical isolates). Six L. monocytogenes strains were mutants of the EGD strain and were mutated in genes known to be involved in stress tolerance. The S. aureus collection comprised two deletion mutants, strains Sa113/ΔmprF [8] and Sa113/ΔdltA [7], known to be more sensitive to host defense peptides. Two of the S. aureus strains could not immediately be assigned to an existing spa type and we are in the process of acquiring the additional information that is needed to assign a new spa type to them. The strains were obtained from The National Institute of Aquatic Resources and The National Food Institute, Technical University of Denmark, Faculty of Life Sciences, University of Copenhagen, Denmark, Statens Serum Institut, Denmark, University of Würzburg, Germany and Campden Food and Drink Association, United Kingdom. Stock cultures were stored at -80°C in 4% (w/V) glycerol, 0.5% (w/V) glucose, and 2.0% (w/V) skimmed milk powder. The bacteria were grown in Brain Heart Infusion (BHI) broth (Oxoid, CM0225), Tryptone Soy Broth (TSB) (Oxoid, CM129), and cation-adjusted Mueller-Hinton II Broth (MHB) (Becton Dickinson, 212322) adjusted to pH 7.4. To avoid unspecific binding of host defense peptides to plastic ware and agar, all MIC determinations were carried out using polypropylene plastic ware and radial diffusion assays were carried out in MHB supplemented with 1% agarose (Invitrogen, 15510-027) as gelling agent.
(§3) Protamine was purchased from Sigma (P4020-5G). Plectasin, novicidin, and novispirin G10 were supplied by Novozymes A/S. Recombinant HBD-3 was purchased from PeproTech (300-52).
as §1

Listeria monocytogenes = assay: as above; assay type: cell-based; conditions: 37°C; for MIC: 18–24 h
Description: as §2, §3, §1

[2] = strain 796, MHB pH 7.4, 5.0 × 10^5 CFU/ml
[3] = strain 2148-jvi, MHB pH 7.4, 5.0 × 10^5 CFU/ml
[4] = strain 8325-4 (wildtype), MHB pH 7.4, 5.0 × 10^5 CFU/ml
[5] = strain 15033, MHB pH 7.4, 5.0 × 10^5 CFU/ml
[6] = strain B29997, MHB pH 7.4, 5.0 × 10^5 CFU/ml
[7] = strain B31369, MHB pH 7.4, 5.0 × 10^5 CFU/ml
[8] = strain J15033, MHB pH 7.4, 5.0 × 10^5 CFU/ml
[9] = strain K3-B2, MHB pH 7.4, 5.0 × 10^5 CFU/ml
[10] = strain KES 439, MHB pH 7.4, 5.0 × 10^5 CFU/ml
[11] = strain KES 626, MHB pH 7.4, 5.0 × 10^5 CFU/ml
[12] = strain KES 735, MHB pH 7.4, 5.0 × 10^5 CFU/ml
[13] = strain KES 855, MHB pH 7.4, 5.0 × 10^5 CFU/ml
[14] = strain Sa113 (wildtype), MHB pH 7.4, 5.0 × 10^5 CFU/ml
[15] = strain ΔdltA (Sa113 dltA ins), MHB pH 7.4, 5.0 × 10^5 CFU/ml
[16] = strain ΔmprF (Sa113 mprF del), MHB pH 7.4, 5.0 × 10^5 CFU/ml
[17] = strain 2275 (EGD dps del), MHB pH 7.4, 5.0 × 10^5 CFU/ml
[18] = strain 2307 (EGD resD del), MHB pH 7.4, 5.0 × 10^5 CFU/ml
[19] = strain 2315 (EGD sigB del), MHB pH 7.4, 5.0 × 10^5 CFU/ml
[20] = strain 2317 (EGD prfA del), MHB pH 7.4, 5.0 × 10^5 CFU/ml
[21] = strain 2374 (EGD perR ins), MHB pH 7.4, 5.0 × 10^5 CFU/ml
[22] = strain 2375 (EGD perR del), MHB pH 7.4, 5.0 × 10^5 CFU/ml
[23] = strain 4239, MHB pH 7.4, 5.0 × 10^5 CFU/ml
[24] = strain 4446, MHB pH 7.4, 5.0 × 10^5 CFU/ml
[25] = strain 4459, MHB pH 7.4, 5.0 × 10^5 CFU/ml
[26] = strain 4666, MHB pH 7.4, 5.0 × 10^5 CFU/ml
[27] = strain 6895, MHB pH 7.4, 5.0 × 10^5 CFU/ml
[28] = strain 7291, MHB pH 7.4, 5.0 × 10^5 CFU/ml
[29] = strain 7418, MHB pH 7.4, 5.0 × 10^5 CFU/ml
[30] = strain EGD (wildtype), MHB pH 7.4, 5.0 × 10^5 CFU/ml
[31] = strain H13-1, MHB pH 7.4, 5.0 × 10^5 CFU/ml
[32] = strain LO28 (wildtype), MHB pH 7.4, 5.0 × 10^5 CFU/ml
[33] = strain La22, MHB pH 7.4, 5.0 × 10^5 CFU/ml
[34] = strain La111, MHB pH 7.4, 5.0 × 10^5 CFU/ml
[35] = strain M103-1, MHB pH 7.4, 5.0 × 10^5 CFU/ml
[36] = strain N53-1, MHB pH 7.4, 5.0 × 10^5 CFU/ml
[37] = strain No40-1, MHB pH 7.4, 5.0 × 10^5 CFU/ml
[38] = strain O57, MHB pH 7.4, 5.0 × 10^5 CFU/ml
[39] = strain R479a, MHB pH 7.4, 5.0 × 10^5 CFU/ml
[40] = strain Scott A, MHB pH 7.4, 5.0 × 10^5 CFU/ml
[41] = strain V518a, MHB pH 7.4, 5.0 × 10^5 CFU/ml

novispirin G10 was tested, and the “minimum bactericidal concentrations (MBC)” value [1] was “identical to the MICs”, the MIC (Staphylococcus aureus; [2]) was 128 µg/mL and the MIC (Staphylococcus aureus; [3]) was 64 µg/mL. It also gave an MIC (Staphylococcus aureus; [4]) of 128 µg/mL, an MIC (Staphylococcus aureus; [5]) of 128 µg/mL and an MIC (Staphylococcus aureus; [6]) of 128 µg/mL. For the same substance, the MIC (Staphylococcus aureus; [7]) was 256 µg/mL, the MIC (Staphylococcus aureus; [8]) was 128 µg/mL and the MIC (Staphylococcus aureus; [9]) was 128 µg/mL. It also gave an MIC (Staphylococcus aureus; [10]) of 128 µg/mL, an MIC (Staphylococcus aureus; [11]) of 64 µg/mL and an MIC (Staphylococcus aureus; [12]) of 128 µg/mL. It also gave an MIC (Staphylococcus aureus; [13]) of 64 µg/mL, an MIC (Staphylococcus aureus; [14]) of 128 µg/mL and an MIC (Staphylococcus aureus; [15]) of 2 µg/mL. For the same substance, the MIC (Staphylococcus aureus; [16]) was 8 µg/mL, the MIC (Listeria monocytogenes; [17]) was 64 µg/mL and the MIC (Listeria monocytogenes; [18]) was 32 µg/mL. For the same substance, the MIC (Listeria monocytogenes; [19]) was 64 µg/mL, the MIC (Listeria monocytogenes; [20]) was 64 µg/mL and the MIC (Listeria monocytogenes; [21]) was 32 µg/mL. The MIC (Listeria monocytogenes; [22]) was 32 µg/mL, the MIC (Listeria monocytogenes; [23]) was 64 µg/mL and the MIC (Listeria monocytogenes; [24]) was 64 µg/mL. It also gave an MIC (Listeria monocytogenes; [25]) of 32 µg/mL, an MIC (Listeria monocytogenes; [26]) of 64 µg/mL and an MIC (Listeria monocytogenes; [27]) of 96 µg/mL. The MIC (Listeria monocytogenes; [28]) was 128 µg/mL, the MIC (Listeria monocytogenes; [29]) was 64 µg/mL and the MIC (Listeria monocytogenes; [30]) was 64 µg/mL. For the same substance, the MIC (Listeria monocytogenes; [31]) was 64 µg/mL, the MIC (Listeria monocytogenes; [32]) was 16 µg/mL and the MIC (Listeria monocytogenes; [33]) was 64 µg/mL. It also gave an MIC (Listeria monocytogenes; [34]) of 32 µg/mL, an MIC (Listeria monocytogenes; [35]) of 64 µg/mL and an MIC (Listeria monocytogenes; [36]) of 32 µg/mL. For the same substance, the MIC (Listeria monocytogenes; [37]) was 64 µg/mL, the MIC (Listeria monocytogenes; [38]) was 128 µg/mL and the MIC (Listeria monocytogenes; [39]) was 64 µg/mL. For the same substance, the MIC (Listeria monocytogenes; [40]) was 32 µg/mL and the MIC (Listeria monocytogenes; [41]) was 64 µg/mL.

protamine was tested, and the “MIC values against S. aureus (range over strains)” value (Staphylococcus aureus; range over 16 strains, MHB pH 7.4, 18–24 h) was 8 to 32 µg/mL, the MIC (Staphylococcus aureus; [2]) was 16 µg/mL and the MIC (Staphylococcus aureus; [3]) was 16 µg/mL. The MIC (Staphylococcus aureus; [4]) was 16 µg/mL, the MIC (Staphylococcus aureus; strain 14943, MHB pH 7.4, 5.0 × 10^5 CFU/ml) was 16 µg/mL and the MIC (Staphylococcus aureus; [5]) was 32 µg/mL. The MIC (Staphylococcus aureus; [6]) was 16 µg/mL, the MIC (Staphylococcus aureus; [7]) was 16 µg/mL and the MIC (Staphylococcus aureus; [8]) was 16 µg/mL. The MIC (Staphylococcus aureus; [9]) was 16 µg/mL, the MIC (Staphylococcus aureus; [10]) was 32 µg/mL and the MIC (Staphylococcus aureus; [11]) was 16 µg/mL. It also gave an MIC (Staphylococcus aureus; [12]) of 16 µg/mL, an MIC (Staphylococcus aureus; [13]) of 16 µg/mL and an MIC (Staphylococcus aureus; [14]) of 16 µg/mL. The MIC (Staphylococcus aureus; [15]) was 8 µg/mL, the MIC (Staphylococcus aureus; [16]) was 8 µg/mL and the “MIC values against L. monocytogenes (range over strains)” value (Listeria monocytogenes; range over 25 strains, MHB pH 7.4, 18–24 h) was 8 to 32 µg/mL. The MIC (Listeria monocytogenes; [17]) was 16 µg/mL, the MIC (Listeria monocytogenes; [18]) was 8 µg/mL and the MIC (Listeria monocytogenes; [19]) was 8 µg/mL. For the same substance, the MIC (Listeria monocytogenes; [20]) was 16 µg/mL, the MIC (Listeria monocytogenes; [21]) was 32 µg/mL and the MIC (Listeria monocytogenes; [22]) was 32 µg/mL. It also gave an MIC (Listeria monocytogenes; [23]) of 32 µg/mL, an MIC (Listeria monocytogenes; [24]) of 16 µg/mL and an MIC (Listeria monocytogenes; [25]) of 16 µg/mL. For the same substance, the MIC (Listeria monocytogenes; [26]) was 8 µg/mL, the MIC (Listeria monocytogenes; [27]) was 16 µg/mL and the MIC (Listeria monocytogenes; [28]) was 32 µg/mL. For the same substance, the MIC (Listeria monocytogenes; [29]) was 32 µg/mL, the MIC (Listeria monocytogenes; [30]) was 8 µg/mL and the MIC (Listeria monocytogenes; [31]) was 16 µg/mL. For the same substance, the MIC (Listeria monocytogenes; [32]) was 8 µg/mL, the MIC (Listeria monocytogenes; [33]) was 16 µg/mL and the MIC (Listeria monocytogenes; [34]) was 8 µg/mL. The MIC (Listeria monocytogenes; [35]) was 32 µg/mL, the MIC (Listeria monocytogenes; [36]) was 16 µg/mL and the MIC (Listeria monocytogenes; [37]) was 16 µg/mL. It also gave an MIC (Listeria monocytogenes; [38]) of 16 µg/mL, an MIC (Listeria monocytogenes; [39]) of 16 µg/mL and an MIC (Listeria monocytogenes; [40]) of 16 µg/mL. For the same substance, the MIC (Listeria monocytogenes; [41]) was 32 µg/mL.
